Assay results reported in the kinase profiling compilation of Christmann-Franck et al. (2016).

Experiments:
Experiment in all cases: radiometric filter-binding kinase assay, Kinase HotSpot
Settings in all cases: compound 0.5 µM; ATP 10 µM
PRKCH (human) = PRKCH (human) (UniProt P24723)
CDK1 CCNA2 (human) = CDK1 CCNA2 (human) (UniProt P06493+P20248)
CDK1 CCNB1 (human) = CDK1 CCNB1 (human) (UniProt P06493+P14635)
CDK2 CCNA2 (human) = CDK2 CCNA2 (human) (UniProt P24941+P20248)
CDK2 CCNE1 (human) = CDK2 CCNE1 (human) (UniProt P24941+P24864)
CDK2 CCNE1 (human), sequence (P24864 whole entry, looked up, other chains not shown): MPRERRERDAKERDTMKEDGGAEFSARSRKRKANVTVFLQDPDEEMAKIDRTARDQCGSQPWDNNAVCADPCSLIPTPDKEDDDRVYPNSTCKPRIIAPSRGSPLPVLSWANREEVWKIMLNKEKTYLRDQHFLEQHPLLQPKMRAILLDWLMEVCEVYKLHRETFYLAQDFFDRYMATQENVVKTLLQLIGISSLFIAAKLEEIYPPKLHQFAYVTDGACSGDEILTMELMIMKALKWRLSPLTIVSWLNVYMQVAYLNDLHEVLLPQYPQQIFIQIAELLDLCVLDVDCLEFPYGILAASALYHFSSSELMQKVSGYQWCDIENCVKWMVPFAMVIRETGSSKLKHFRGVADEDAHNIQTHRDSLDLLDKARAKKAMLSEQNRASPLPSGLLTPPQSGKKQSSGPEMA

CDK3 CCNE1 (human) = CDK3 CCNE1 (human) (UniProt Q00526+P24864)
CDK3 CCNE1 (human), sequence (P24864 whole entry, looked up): as the sequence (P24864 whole entry, looked up, other chains not shown) above
CDK3 CCNE1 (human), sequence (Q00526 whole entry, looked up): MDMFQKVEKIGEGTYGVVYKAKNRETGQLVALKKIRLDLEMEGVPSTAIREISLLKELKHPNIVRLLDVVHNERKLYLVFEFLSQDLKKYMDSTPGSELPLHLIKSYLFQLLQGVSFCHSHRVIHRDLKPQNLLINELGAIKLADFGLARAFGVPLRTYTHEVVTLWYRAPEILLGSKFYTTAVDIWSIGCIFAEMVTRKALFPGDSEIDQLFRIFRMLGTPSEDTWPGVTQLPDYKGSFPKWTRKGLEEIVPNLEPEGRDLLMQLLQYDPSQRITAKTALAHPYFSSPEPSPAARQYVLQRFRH

CDK4 CCND1 (human) = CDK4 CCND1 (human) (UniProt P24385+P11802)
CDK4 CCND3 (human) = CDK4 CCND3 (human) (UniProt P30281+P11802)
CDK5 CDK5R1 p25 (human) = CDK5 CDK5R1 p25 (human) (UniProt Q00535+Q15078)
CDK5 CDK5R1 p35 (human) = CDK5 CDK5R1 p35 (human) (UniProt Q00535+Q15078)
CDK6 CCND1 (human) = CDK6 CCND1 (human) (UniProt Q00534+P24385)
CDK6 CCND3 (human) = CDK6 CCND3 (human) (UniProt P30281+Q00534)
CDK7 CCNH MNAT1 (human) = CDK7 CCNH MNAT1 (human) (UniProt P50613+P51948+P51946)
CDK9 CCNK (human) = CDK9 CCNK (human) (UniProt O75909+P50750)
CDK9 CCNT1 (human) = CDK9 CCNT1 (human) (UniProt P50750+O60563)
DYRK1B (human) = DYRK1B (human) (UniProt Q9Y463)
DYRK1B (human), sequence (Q9Y463 whole entry, looked up): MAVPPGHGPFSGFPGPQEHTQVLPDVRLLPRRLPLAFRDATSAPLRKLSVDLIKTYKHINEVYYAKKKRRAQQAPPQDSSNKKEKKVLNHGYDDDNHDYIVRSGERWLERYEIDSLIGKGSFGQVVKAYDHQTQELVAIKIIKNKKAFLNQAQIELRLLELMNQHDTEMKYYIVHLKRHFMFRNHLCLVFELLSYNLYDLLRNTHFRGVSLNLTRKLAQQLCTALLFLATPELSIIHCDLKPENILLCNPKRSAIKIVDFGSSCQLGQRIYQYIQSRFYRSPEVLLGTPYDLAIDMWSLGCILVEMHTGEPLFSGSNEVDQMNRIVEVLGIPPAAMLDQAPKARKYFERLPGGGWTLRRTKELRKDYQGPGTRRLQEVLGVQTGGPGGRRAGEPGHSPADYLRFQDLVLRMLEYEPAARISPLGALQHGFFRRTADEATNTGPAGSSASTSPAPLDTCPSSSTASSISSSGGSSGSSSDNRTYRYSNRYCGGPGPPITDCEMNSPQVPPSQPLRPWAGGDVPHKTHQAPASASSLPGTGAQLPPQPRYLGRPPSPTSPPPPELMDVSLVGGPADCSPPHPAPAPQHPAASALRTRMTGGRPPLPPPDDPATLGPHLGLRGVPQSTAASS

LTK (human) = LTK (human) (UniProt P29376)
LTK (human), sequence (P29376 whole entry, looked up): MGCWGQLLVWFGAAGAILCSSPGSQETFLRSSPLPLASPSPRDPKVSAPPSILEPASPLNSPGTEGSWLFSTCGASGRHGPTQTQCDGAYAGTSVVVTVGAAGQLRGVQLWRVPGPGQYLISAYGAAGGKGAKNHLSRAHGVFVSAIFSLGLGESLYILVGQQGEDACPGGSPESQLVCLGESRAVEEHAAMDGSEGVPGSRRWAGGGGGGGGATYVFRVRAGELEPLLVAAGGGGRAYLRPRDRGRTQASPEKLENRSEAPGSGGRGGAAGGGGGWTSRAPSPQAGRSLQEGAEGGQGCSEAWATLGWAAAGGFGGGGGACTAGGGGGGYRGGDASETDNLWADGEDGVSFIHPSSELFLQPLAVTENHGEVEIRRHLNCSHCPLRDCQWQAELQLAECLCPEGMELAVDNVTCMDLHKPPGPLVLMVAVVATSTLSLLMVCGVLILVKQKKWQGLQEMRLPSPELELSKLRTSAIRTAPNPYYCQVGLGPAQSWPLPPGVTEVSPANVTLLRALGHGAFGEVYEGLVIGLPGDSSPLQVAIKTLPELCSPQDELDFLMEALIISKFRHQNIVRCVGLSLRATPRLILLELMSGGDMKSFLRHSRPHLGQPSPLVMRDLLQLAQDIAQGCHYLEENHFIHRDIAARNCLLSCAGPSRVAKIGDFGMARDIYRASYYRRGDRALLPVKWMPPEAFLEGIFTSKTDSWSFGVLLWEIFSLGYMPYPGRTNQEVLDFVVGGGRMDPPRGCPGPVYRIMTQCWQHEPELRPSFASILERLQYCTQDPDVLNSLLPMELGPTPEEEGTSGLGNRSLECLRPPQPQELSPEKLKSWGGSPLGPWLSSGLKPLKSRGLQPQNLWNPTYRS

MAP3K7 TAB1 (human) = MAP3K7 TAB1 (human) (UniProt O43318+Q15750)
STK33 (human) = STK33 (human) (UniProt Q9BYT3)
STK33 (human), sequence (Q9BYT3 whole entry, looked up): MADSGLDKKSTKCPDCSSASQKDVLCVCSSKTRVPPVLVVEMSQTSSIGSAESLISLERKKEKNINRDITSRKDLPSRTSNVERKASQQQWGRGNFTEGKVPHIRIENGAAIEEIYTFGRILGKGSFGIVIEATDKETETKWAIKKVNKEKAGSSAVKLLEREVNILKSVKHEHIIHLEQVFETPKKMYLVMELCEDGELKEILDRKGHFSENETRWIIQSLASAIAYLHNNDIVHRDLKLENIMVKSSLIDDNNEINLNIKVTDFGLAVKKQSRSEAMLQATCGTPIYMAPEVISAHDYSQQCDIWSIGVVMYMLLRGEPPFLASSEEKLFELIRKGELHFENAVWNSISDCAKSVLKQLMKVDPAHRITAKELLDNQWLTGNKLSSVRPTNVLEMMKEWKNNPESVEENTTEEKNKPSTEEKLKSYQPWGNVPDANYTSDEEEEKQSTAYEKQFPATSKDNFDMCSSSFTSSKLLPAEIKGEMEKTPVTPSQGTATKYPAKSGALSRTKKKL

CSNK1A1 (human) = CSNK1A1 (human) (UniProt P48729)
FYN (human) = FYN (human) (UniProt P06241)

CDK2 CCNA2 (human), sequence (P20248 whole entry, looked up, other chains not shown): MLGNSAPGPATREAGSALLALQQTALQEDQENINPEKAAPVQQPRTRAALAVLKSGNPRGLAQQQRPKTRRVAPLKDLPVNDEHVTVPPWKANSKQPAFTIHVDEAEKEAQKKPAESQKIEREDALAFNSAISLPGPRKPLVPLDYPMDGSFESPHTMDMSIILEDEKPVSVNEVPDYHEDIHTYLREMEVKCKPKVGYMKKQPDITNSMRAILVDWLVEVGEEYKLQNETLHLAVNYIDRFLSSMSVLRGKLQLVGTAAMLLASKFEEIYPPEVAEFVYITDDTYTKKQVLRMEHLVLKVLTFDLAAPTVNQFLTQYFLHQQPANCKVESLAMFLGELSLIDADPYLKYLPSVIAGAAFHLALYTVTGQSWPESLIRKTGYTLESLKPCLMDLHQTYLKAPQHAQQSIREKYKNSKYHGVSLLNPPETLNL
PRKCH (human), sequence (P24723 whole entry, looked up): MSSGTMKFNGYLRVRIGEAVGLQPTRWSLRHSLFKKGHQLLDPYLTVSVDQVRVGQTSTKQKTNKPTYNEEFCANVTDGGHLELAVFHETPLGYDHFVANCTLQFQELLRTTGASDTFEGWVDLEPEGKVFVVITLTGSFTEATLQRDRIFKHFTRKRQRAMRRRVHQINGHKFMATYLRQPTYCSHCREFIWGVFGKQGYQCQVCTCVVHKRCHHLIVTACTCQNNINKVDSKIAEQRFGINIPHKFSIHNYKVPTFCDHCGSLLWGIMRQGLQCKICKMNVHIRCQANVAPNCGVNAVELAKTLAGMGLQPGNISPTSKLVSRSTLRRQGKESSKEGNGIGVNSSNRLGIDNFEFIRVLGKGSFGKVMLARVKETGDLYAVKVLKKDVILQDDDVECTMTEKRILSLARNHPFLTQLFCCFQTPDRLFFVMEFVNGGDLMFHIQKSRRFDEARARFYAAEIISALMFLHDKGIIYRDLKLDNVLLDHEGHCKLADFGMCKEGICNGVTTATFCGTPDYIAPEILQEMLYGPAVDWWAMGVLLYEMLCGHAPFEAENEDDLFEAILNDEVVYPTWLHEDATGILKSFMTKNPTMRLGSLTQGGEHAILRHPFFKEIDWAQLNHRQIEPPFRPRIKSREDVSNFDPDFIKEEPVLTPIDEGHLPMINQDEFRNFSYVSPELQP
CDK1 CCNA2 (human), sequence (P06493 whole entry, looked up): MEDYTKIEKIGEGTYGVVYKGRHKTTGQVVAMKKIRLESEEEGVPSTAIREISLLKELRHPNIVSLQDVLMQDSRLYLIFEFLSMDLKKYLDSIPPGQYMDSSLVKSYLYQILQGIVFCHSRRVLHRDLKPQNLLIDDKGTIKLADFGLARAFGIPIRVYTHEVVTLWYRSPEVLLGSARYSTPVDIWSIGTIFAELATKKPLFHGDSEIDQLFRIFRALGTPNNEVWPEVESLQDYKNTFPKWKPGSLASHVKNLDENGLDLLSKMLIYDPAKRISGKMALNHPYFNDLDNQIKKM
CDK1 CCNA2 (human), sequence (P20248 whole entry, looked up): as the sequence (P20248 whole entry, looked up, other chains not shown) above
CDK1 CCNB1 (human), sequence (P06493 whole entry, looked up): as the sequence (P06493 whole entry, looked up) above
CDK1 CCNB1 (human), sequence (P14635 whole entry, looked up): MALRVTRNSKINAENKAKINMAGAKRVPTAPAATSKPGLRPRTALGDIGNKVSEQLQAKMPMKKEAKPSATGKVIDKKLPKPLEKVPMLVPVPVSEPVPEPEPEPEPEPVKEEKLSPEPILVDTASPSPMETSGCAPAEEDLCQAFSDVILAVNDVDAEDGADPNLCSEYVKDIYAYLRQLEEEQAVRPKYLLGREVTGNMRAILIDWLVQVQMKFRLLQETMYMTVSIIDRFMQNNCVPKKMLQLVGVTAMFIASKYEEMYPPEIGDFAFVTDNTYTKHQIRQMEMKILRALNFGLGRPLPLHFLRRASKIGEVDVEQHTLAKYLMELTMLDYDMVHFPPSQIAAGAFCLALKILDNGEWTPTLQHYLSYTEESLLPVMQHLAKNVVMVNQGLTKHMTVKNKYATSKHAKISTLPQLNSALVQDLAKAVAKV

SMILES	residual activity (PRKCH (human)) [%]	residual activity (CDK1 CCNA2 (human)) [%]	residual activity (CDK1 CCNB1 (human)) [%]	residual activity (CDK2 CCNA2 (human)) [%]	residual activity (CDK2 CCNE1 (human)) [%]	residual activity (CDK3 CCNE1 (human)) [%]	residual activity (CDK4 CCND1 (human)) [%]	residual activity (CDK4 CCND3 (human)) [%]	residual activity (CDK5 CDK5R1 p25 (human)) [%]	residual activity (CDK5 CDK5R1 p35 (human)) [%]	residual activity (CDK6 CCND1 (human)) [%]	residual activity (CDK6 CCND3 (human)) [%]	residual activity (CDK7 CCNH MNAT1 (human)) [%]	residual activity (CDK9 CCNK (human)) [%]	residual activity (CDK9 CCNT1 (human)) [%]	residual activity (DYRK1B (human)) [%]	residual activity (LTK (human)) [%]	residual activity (STK33 (human)) [%]	also measured
NC(=O)Nc1sc(-c2ccc(F)cc2)cc1C(N)=O	83.5																		
NC(=O)c1ccc2[nH]c(-c3ccc(Oc4ccc(Cl)cc4)cc3)nc2c1	93.4																		
c1cc(-c2cnn3cc(-c4ccc(OCCN5CCCCC5)cc4)cnc23)ccn1	95	92.2	79.3	87.7	77.5	89.9	35.3	60.7	68.2	67.7	21.2	14.8	83.7	36.7	65	26.2	95.4	37.4	residual activity (MAP3K7 TAB1 (human)): 49.7%
Cc1ccc(NC(=O)c2ccc(CN3CCN(C)CC3)cc2)cc1Nc1nccc(-c2cccnc2)n1			103			97.5	97.5	107	98.1	103	99	103	101	103	100	97.9	100		
COc1cc(OC)c(/C=C2\C(=O)Nc3ccccc32)c(OC)c1	82.2	103	83	96.3												99	95.3	89.5	residual activity (CSNK1A1 (human)): 59.6%; residual activity (FYN (human)): 100%
O=C1c2ccccc2-[n+]2ccc3c([nH]c4ccccc43)c21	87.1	68		72.4	80.3	80.1										98.7	121	101	
